Reference: PubChem BioAssay AID248 (DTP/NCI, 2004)
Several values for one entry are separate records, joined by “and”; a condition that tells them apart may be missing. Identical values can stand only once. Inconclusive results and toxic doses are left out. No stated cut-off is given here; in the data, active means T/C of 150% or more; inactive means T/C below 125%.

Test system: L1210 leukemia ip in BDF1 mice, survival T/C
Assay: NCI In Vivo Anticancer Drug Screen. Data for tumor model L1210 Leukemia (intraperitoneal) in B6D2F1 (BDF1) mice
Conditions: endpoint: mean survival time, higher = longer survival
In short: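 Mice bearing the transplanted tumor received compound or vehicle. Survival of the treated group was divided by that of the vehicle-treated control group to give the ratio.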

[1] = dose: 100.0 mg/kg/injection, schedule: Q04DX002 (ip), vehicle: carboxymethylcellulose (CMC)
[2] = dose: 200.0 mg/kg/injection, schedule: Q04DX002 (ip), vehicle: carboxymethylcellulose (CMC)
[3] = dose: 400.0 mg/kg/injection, schedule: Q01DX009 (ip), vehicle: carboxymethylcellulose (CMC)
[4] = dose: 400.0 mg/kg/injection, schedule: Q04DX002 (ip), vehicle: carboxymethylcellulose (CMC)
[5] = dose: 100.0 mg/kg/injection, schedule: Q04DX002 (ip), vehicle: Klucel (hydroxypropylcellulose) (HPC)
[6] = dose: 100.0 mg/kg/injection, schedule: Q01DX009 (ip), vehicle: saline
[7] = dose: 50.0 mg/kg/injection, schedule: Q01DX001 (ip), vehicle: saline
[8] = dose: 100.0 mg/kg/injection, schedule: Q01DX001 (ip), vehicle: saline
[9] = dose: 200.0 mg/kg/injection, schedule: Q01DX001 (ip), vehicle: saline
[10] = dose: 100.0 mg/kg/injection, schedule: Q04DX003 (ip), vehicle: saline
[11] = dose: 200.0 mg/kg/injection, schedule: Q04DX003 (ip), vehicle: saline
[12] = dose: 400.0 mg/kg/injection, schedule: Q04DX003 (ip), vehicle: saline
[13] = dose: 75.0 mg/kg/injection, schedule: Q01DX001 (ip), vehicle: saline
[14] = dose: 150.0 mg/kg/injection, schedule: Q01DX001 (ip), vehicle: saline
[15] = dose: 300.0 mg/kg/injection, schedule: Q01DX001 (ip), vehicle: saline
[16] = dose: 400.0 mg/kg/injection, schedule: Q01DX001 (ip), vehicle: saline
[17] = dose: 100.0 mg/kg/injection, schedule: Q04DX003 (ip), vehicle: saline with Tween-80
[18] = dose: 200.0 mg/kg/injection, schedule: Q04DX003 (ip), vehicle: saline with Tween-80
[19] = dose: 400.0 mg/kg/injection, schedule: Q04DX003 (ip), vehicle: saline with Tween-80
[20] = dose: 100.0 mg/kg/injection, schedule: Q01DX009 (ip), vehicle: saline with Tween-80
[21] = dose: 200.0 mg/kg/injection, schedule: Q01DX009 (ip), vehicle: saline with Tween-80

Measured: T/C

CCn1c(COc2ccc(Cl)cc2Cl)c(COC(=O)c2cccc(Cl)c2)c2ccccc21
inactive: dose: 100.0 mg/kg/injection, schedule: Q01DX009 (ip), vehicle: carboxymethylcellulose (CMC) 98 % of control and 103 % of control | [1] 101 % of control and 102 % of control | dose: 200.0 mg/kg/injection, schedule: Q01DX009 (ip), vehicle: carboxymethylcellulose (CMC) 97 % of control and 98 % of control | [2] 94 % of control and 98 % of control | [3] 87 % of control | [4] 95 % of control and 91 % of control

O=C(Nc1ccccc1Cl)Oc1c(Cl)cc(Cl)c2ccccc12
inactive: dose: 25.0 mg/kg/injection, schedule: Q01DX009 (ip), vehicle: Klucel (hydroxypropylcellulose) (HPC) 100 % of control | dose: 50.0 mg/kg/injection, schedule: Q01DX009 (ip), vehicle: Klucel (hydroxypropylcellulose) (HPC) 105 % of control | [5] 91 % of control

CC1(C)N=C(N)N=C(N)N1c1ccc(C(=O)Nc2cccc(S(=O)(=O)F)c2)cc1
inactive: dose: 0.8 mg/kg/injection, schedule: Q01DX009 (ip), vehicle: saline 97 % of control | dose: 4.0 mg/kg/injection, schedule: Q01DX009 (ip), vehicle: saline 101 % of control | dose: 20.0 mg/kg/injection, schedule: Q01DX009 (ip), vehicle: saline 97 % of control | [6] 100 % of control | dose: 500.0 mg/kg/injection, schedule: Q01DX009 (ip), vehicle: saline 92 % of control

CCSc1ncc(F)c(=O)[nH]1
inactive: [7] 113 % of control | [8] 101 % of control | [9] 98 % of control

CC1CC(=O)NC1=O (configuration not stated)
inactive: [10] 115 % of control | [11] 116 % of control | [12] 112 % of control

Nc1ccc(SCC(=O)O)cc1
inactive: [13] 94 % of control | [14] 100 % of control | [15] 92 % of control

COc1nc(N)nc2nc(N)c(-c3ccc(N(CCO)CCO)cc3)nc12
inactive: [8] 95 % of control | [9] 96 % of control | [16] 95 % of control

CN1CCC=Cc2ccccc21
inactive: [6] 97 % of control | [10] 92 % of control | [11] 95 % of control | [12] 90 % of control

Cc1cc(-n2c(C)ccc2C)no1
inactive: [17] 100 % of control | [18] 90 % of control | [19] 101 % of control

Cc1cc(NC(=O)Nc2ccc(Cl)c(C(F)(F)F)c2)no1
inactive: dose: 50.0 mg/kg/injection, schedule: Q01DX009 (ip), vehicle: carboxymethylcellulose (CMC) 96 % of control and 97 % of control | dose: 100.0 mg/kg/injection, schedule: Q01DX001 (ip), vehicle: carboxymethylcellulose (CMC) 110 % of control and 112 % of control | [1] 94 % of control and 100 % of control | dose: 100.0 mg/kg/injection, schedule: Q04DX003 (ip), vehicle: carboxymethylcellulose (CMC) 96 % of control and 103 % of control | dose: 200.0 mg/kg/injection, schedule: Q01DX001 (ip), vehicle: carboxymethylcellulose (CMC) 95 % of control and 108 % of control | [2] 94 % of control and 97 % of control | dose: 200.0 mg/kg/injection, schedule: Q04DX003 (ip), vehicle: carboxymethylcellulose (CMC) 97 % of control and 101 % of control | dose: 400.0 mg/kg/injection, schedule: Q01DX001 (ip), vehicle: carboxymethylcellulose (CMC) 94 % of control and 91 % of control | [3] 86 % of control | [4] 89 % of control and 90 % of control | dose: 400.0 mg/kg/injection, schedule: Q04DX003 (ip), vehicle: carboxymethylcellulose (CMC) 92 % of control and 95 % of control

C1CSC(SCCSC2=NCCS2)=N1
inactive: dose: 62.5 mg/kg/injection, schedule: Q01DX009 (ip), vehicle: carboxymethylcellulose (CMC) 89 % of control | dose: 125.0 mg/kg/injection, schedule: Q01DX009 (ip), vehicle: carboxymethylcellulose (CMC) 100 % of control | dose: 250.0 mg/kg/injection, schedule: Q01DX009 (ip), vehicle: carboxymethylcellulose (CMC) 96 % of control

COc1ccc(CN2CCCN(Cc3ccc(OC)cc3OC)C2c2cccc(F)c2)c(OC)c1
inactive: [7] 89 % of control | [8] 89 % of control | [9] 100 % of control | [16] 91 % of control

O=S(=O)(NC1C2CC3C1N3N2)c1ccccc1 (configuration not stated)
inactive: dose: 50.0 mg/kg/injection, schedule: Q04DX003 (ip), vehicle: saline 90 % of control | [10] 114 % of control | [11] 98 % of control

CC(C)(C)c1cccc(C(C)(C)C)c1OC(=O)NS(=O)(=O)c1ccccc1
inactive: dose: 12.5 mg/kg/injection, schedule: Q01DX009 (ip), vehicle: acetone 98 % of control | dose: 25.0 mg/kg/injection, schedule: Q01DX009 (ip), vehicle: acetone 94 % of control | dose: 50.0 mg/kg/injection, schedule: Q01DX009 (ip), vehicle: acetone 91 % of control | dose: 75.0 mg/kg/injection, schedule: Q01DX009 (ip), vehicle: Klucel (hydroxypropylcellulose) (HPC) 96 % of control | dose: 115.0 mg/kg/injection, schedule: Q01DX009 (ip), vehicle: Klucel (hydroxypropylcellulose) (HPC) 98 % of control

COC(=O)c1cc(Cl)ccc1OCC(=O)Nc1cccc([N+](=O)[O-])c1
inactive: dose: 100.0 mg/kg/injection, schedule: Q01DX009 (ip), vehicle: Klucel (hydroxypropylcellulose) (HPC) 96 % of control | [5] 94 % of control | dose: 100.0 mg/kg/injection, schedule: Q04DX002 (ip), vehicle: saline 94 % of control | dose: 200.0 mg/kg/injection, schedule: Q01DX009 (ip), vehicle: Klucel (hydroxypropylcellulose) (HPC) 89 % of control | dose: 200.0 mg/kg/injection, schedule: Q04DX002 (ip), vehicle: Klucel (hydroxypropylcellulose) (HPC) 92 % of control | dose: 200.0 mg/kg/injection, schedule: Q04DX002 (ip), vehicle: saline 97 % of control | dose: 400.0 mg/kg/injection, schedule: Q01DX009 (ip), vehicle: Klucel (hydroxypropylcellulose) (HPC) 104 % of control | dose: 400.0 mg/kg/injection, schedule: Q04DX002 (ip), vehicle: Klucel (hydroxypropylcellulose) (HPC) 92 % of control | dose: 400.0 mg/kg/injection, schedule: Q04DX002 (ip), vehicle: saline 97 % of control

c1ccc(-c2cc(-c3ccccc3)c3c([o+]2)CCCCCCCCCCCC3)cc1
inactive: dose: 50.0 mg/kg/injection, schedule: Q01DX009 (ip), vehicle: saline with Tween-80 108 % of control | [20] 108 % of control | [21] 97 % of control

Clc1ccc2c(c1)C([P+](c1ccccc1)(c1ccccc1)c1ccccc1)c1cc(Cl)cc(Cl)c1-2 (configuration not stated)
inactive: dose: 100.0 mg/kg/injection, schedule: Q01DX001 (ip), vehicle: Klucel (hydroxypropylcellulose) (HPC) 95 % of control | dose: 100.0 mg/kg/injection, schedule: Q04DX003 (ip), vehicle: Klucel (hydroxypropylcellulose) (HPC) 102 % of control | dose: 200.0 mg/kg/injection, schedule: Q01DX001 (ip), vehicle: Klucel (hydroxypropylcellulose) (HPC) 93 % of control | dose: 200.0 mg/kg/injection, schedule: Q04DX003 (ip), vehicle: Klucel (hydroxypropylcellulose) (HPC) 96 % of control | dose: 400.0 mg/kg/injection, schedule: Q01DX001 (ip), vehicle: Klucel (hydroxypropylcellulose) (HPC) 95 % of control | dose: 400.0 mg/kg/injection, schedule: Q04DX003 (ip), vehicle: Klucel (hydroxypropylcellulose) (HPC) 104 % of control

COc1cc(C=NC(C)(C)CO)cc(OC)c1
inactive: dose: 100.0 mg/kg/injection, schedule: Q01DX001 (ip), vehicle: alcohol 88 % of control | dose: 100.0 mg/kg/injection, schedule: Q04DX003 (ip), vehicle: alcohol 95 % of control | dose: 200.0 mg/kg/injection, schedule: Q01DX001 (ip), vehicle: alcohol 96 % of control | dose: 200.0 mg/kg/injection, schedule: Q04DX003 (ip), vehicle: alcohol 97 % of control | dose: 400.0 mg/kg/injection, schedule: Q01DX001 (ip), vehicle: alcohol 96 % of control | dose: 400.0 mg/kg/injection, schedule: Q04DX003 (ip), vehicle: alcohol 100 % of control

CCc1ccc(P(=O)(O)O)cc1
inactive: [13] 94 % of control | [14] 103 % of control | [15] 88 % of control

CCN(C(=O)COc1ccc(Cl)cc1Cl)c1ccccc1C
inactive: [20] 106 % of control | [17] 105 % of control | [21] 107 % of control | [18] 102 % of control | dose: 400.0 mg/kg/injection, schedule: Q01DX009 (ip), vehicle: saline with Tween-80 98 % of control | [19] 93 % of control
